Reference: ChEMBL document CHEMBL4342418, “1,2,3-Triazole-containing hybrids as potential anticancer agents: Current developments, action mechanisms and structure-activity relationships” (Eur J Med Chem, 2019)

Assays:
MCF7 [1] = assay: Antiproliferative activity against human MCF7 cells assessed as reduction in cell viability after 24 hrs by MTT assay; assay type: functional, cell-based; details: MCF7, 24 h
MDA-MB-231 [2] = assay: Antiproliferative activity against human MDA-MB-231 cells assessed as reduction in cell viability after 24 hrs by MTT assay; assay type: functional, cell-based; details: MDA-MB-231, 24 h
MCF7 [3] = assay: cells; assay type: functional, cell-based; details: Homo sapiens
Description: Antiproliferative activity against human MCF7 cells by MTT assay

ECa-109 cell line = assay: Antiproliferative activity against human EC109 cells by MTT assay; assay type: functional, cell-based
MGC-803 = assay: Antiproliferative activity against human MGC803 cells by MTT assay; assay type: functional, cell-based
[4] = Antiproliferative activity against human HCG27 cells by MTT assay; assay type: functional, cell-based
DU-145 = assay: Antiproliferative activity against human DU145 cells assessed as reduction in cell viability after 48 hrs by MTT assay; assay type: functional, cell-based; details: DU-145, 48 h
HeLa [5] = assay: Antiproliferative activity against human HeLa cells assessed as reduction in cell viability after 48 hrs by MTT assay; assay type: functional, cell-based
SK-OV-3 = assay: Antiproliferative activity against human SKOV3 cells assessed as reduction in cell viability after 48 hrs by MTT assay; assay type: functional, cell-based; details: SK-OV-3, 48 h
[6] = Antiproliferative activity against human […] cells assessed as reduction in cell viability after 72 hrs by MTT assay; assay type: functional, cell-based
A-431 = assay: Antiproliferative activity against human A431 cells assessed as reduction in cell viability after 72 hrs by MTT assay; assay type: functional, cell-based; details: A-431, 72 h
T47D [7] = assay: Antiproliferative activity against human T47D cells assessed as reduction in cell viability after 72 hrs by MTT assay; assay type: functional, cell-based
MDA-MB-231 [8] = assay: Antiproliferative activity against human MDA-MB-231 cells assessed as reduction in cell viability after 72 hrs by MTT assay; assay type: functional, cell-based; details: MDA-MB-231, 72 h, read-out: IC50
HeLa [9] = assay: Antiproliferative activity against human HeLa cells assessed as reduction in cell viability after 72 hrs by MTT assay; assay type: functional, cell-based
A2780 = assay: Antiproliferative activity against human A2780 cells assessed as reduction in cell viability after 72 hrs by MTT assay; assay type: functional, cell-based; details: A2780, 72 h
MCF7 [10] = assay: Antiproliferative activity against human MCF7 cells assessed as reduction in cell viability after 72 hrs by MTT assay; assay type: functional, cell-based; details: MCF7, 72 h
HT-29 [11] = assay: Potency index, ratio of Sorafenib IC50 to test compound IC50 for antiproliferative activity against human HT-29 cells; assay type: functional
MCF7 [12] = assay: Potency index, ratio of Sorafenib IC50 to test compound IC50 for antiproliferative activity against human MCF7 cells; assay type: functional
HT-29 [13] = assay: Antiproliferative activity against human HT-29 cells assessed as reduction in cell viability after 72 hrs by MTT assay; assay type: functional, cell-based; details: HT-29, 72 h
A549 = assay: cells; assay type: functional, cell-based; details: Homo sapiens
Description: Antiproliferative activity against human A549 cells by MTT assay

T47D [14] = assay: Antiproliferative activity against human T47D cells by MTT assay; assay type: functional, cell-based
HBL-100 = assay: Antiproliferative activity against human HBL100 cells by MTT assay; assay type: functional, cell-based
SW1573 = assay: Antiproliferative activity against human SW1573 cells by MTT assay; assay type: functional, cell-based
hTERT-BJ = assay: Cytotoxicity activity against human hTERT-BJ cells by MTT assay; assay type: cell-based
HeLa [15] = assay: Antiproliferative activity against human HeLa cells by MTT assay; assay type: functional, cell-based
WiDr = assay: Antiproliferative activity against human WiDr cells by MTT assay; assay type: functional, cell-based

Question: For `Cc1ncc([N+](=O)[O-])n1Cc1cn(CCCCCN2C(=O)C(=O)c3cc(Cl)ccc32)nn1`, which IC50 (MCF7 [1]) is on record?
Answer: 20.8 µM

Question: And the IC50 (MDA-MB-231 [2])?
Answer: 16.1 µM

Question: For `Cc1ccc(Cn2cc(CSc3nc(Nc4ccccc4)c4ccccc4n3)nn2)cc1`, which IC50 (MCF7 [3]) is on record?
Answer: 0.57 to 7.13 µM

Question: And the IC50 (ECa-109 cell line)?
Answer: 0.57 to 7.13 µM

Question: And the IC50 (MGC-803)?
Answer: 0.57 to 7.13 µM

Question: And the IC50 [4]?
Answer: 0.57 to 7.13 µM

Question: For `O=C(NCc1cn(-c2ccc(F)cc2)nn1)C(=O)c1c[nH]c2ccccc12`, which IC50 (DU-145) is on record?
Answer: 8.69 µM

Question: And the IC50 (HeLa [5])?
Answer: > 100 µM

Question: And the IC50 (SK-OV-3)?
Answer: > 100 µM

Question: With `CCc1ccc(-c2cn([C@H]3C[C@H]4[C@@H]5CCc6cc(OCc7ccccc7)ccc6[C@H]5CC[C@@]4(C)[C@@H]3O)nn2)cc1` as the compound, how does the IC50 [6] read?
Answer: 2.4 to 8.3 µM

Question: And the IC50 (A-431)?
Answer: 2.4 to 8.3 µM

Question: And the IC50 (T47D [7])?
Answer: 2.4 to 8.3 µM

Question: What about the IC50 (MDA-MB-231 [8]) of the same compound?
Answer: 2.4 to 8.3 µM

Question: What about the IC50 (HeLa [9]) of the same compound?
Answer: 2.4 to 8.3 µM

Question: And the IC50 (A2780)?
Answer: 2.4 to 8.3 µM

Question: What about the IC50 (MCF7 [10]) of the same compound?
Answer: 2.4 to 8.3 µM

Question: Which results are given for `CNC(=O)c1cc(Oc2ccc(-n3cc(-c4ccccc4F)nn3)cc2)ccn1`?
Answer: Ratio IC50 (HT-29 [11]): 6.2 - 131.2; Ratio IC50 (MCF7 [12]): 6.2 - 131.2; IC50 (MCF7 [10]): 0.2 to 0.84 µM; IC50 (HT-29 [13]): 0.2 to 0.84 µM

Question: Which results are given for `C=CCC1CC(Cc2cn([C@@H](Cc3ccccc3)c3nc(C(=O)OC)co3)nn2)CC(O[Si](C)(C)C(C)(C)C)C1` (some centres not stated)?
Answer: IC50 (A549): 3.1 to 6.6 µM; IC50 (T47D [14]): 3.1 to 6.6 µM; IC50 (HBL-100): 3.1 to 6.6 µM; IC50 (SW1573): 3.1 to 6.6 µM; IC50 (hTERT-BJ): 53 µM; IC50 (HeLa [15]): 3.1 to 6.6 µM; IC50 (WiDr): 3.1 to 6.6 µM
